Laboratory results from ChEMBL document CHEMBL6096736, “Development of a Highly Selective Ferroptosis Inducer Targeting GPX4 with 2-Ethynylthiazole-4-carboxamide as Electrophilic Warhead” (J Med Chem, 2025).
The source made the active and inactive calls. The rule behind the calls is not given here.

Assays:
[1] = Acute toxicity in BALB/c mouse implanted with human HT-1080 cells assessed as kidney damage at 15 to 30 mg/kg, ip administered for 7 days by H and E staining based analysis; format: organism-based; details: in vivo, 168 h, dose 15-30 mg/kg, time 7 day
[2] = Acute toxicity in BALB/c mouse implanted with human HT-1080 cells assessed as change in AST level at 15 to 30 mg/kg, ip administered for 7 days; format: organism-based; details: in vivo, 168 h, dose 15-30 mg/kg, time 7 day
[3] = tested on: HT-1080; test: Antitumor activity against human HT-1080 cells xenografted in BALB/c mouse assessed as tumor growth inhibition at 30 mg/kg, ip administered for 6 days and measured after 2 weeks; format: functional; details: HT-1080, 480 h, time 20 day, read-out: TGI
[4] = Acute toxicity in BALB/c mouse implanted with human HT-1080 cells assessed as lung damage at 15 to 30 mg/kg, ip administered for 7 days by H and E staining based analysis; format: organism-based; details: in vivo, 168 h, dose 15-30 mg/kg, time 7 day
[5] = tested on: HT-1080; test: Induction of ferroptosis in human HT-1080 cells assessed as increase in cellular MDA level at 0.1 uM incubated for 6 hrs; format: functional, cell-based
[6] = Clearance in male Sprague-Dawley rat at 2 mg/kg, iv measured upto 36 hrs by LC-MS/MS analysis; format: ADME, organism-based; details: in vivo
[7] = Cmax in male Sprague-Dawley rat at 2 mg/kg, iv measured upto 36 hrs by LC-MS/MS analysis; format: ADME, organism-based; details: in vivo
[8] = AUC (0 to t) in male Sprague-Dawley rat at 2 mg/kg, iv measured upto 36 hrs by LC-MS/MS analysis; format: ADME, organism-based; details: in vivo
[9] = tested on: MCF7; test: Cytotoxicity against human MCF7 cells
[10] = tested on: HT-1080; test: Cytotoxicity against human HT-1080 cells assessed as cell viability incubated for 24 hrs by CCK-8 assay; details: HT-1080, 24 h
[11] = Half life in male Sprague-Dawley rat at 2 mg/kg, iv measured upto 36 hrs by LC-MS/MS analysis; format: ADME, organism-based; details: in vivo
[12] = tested on: HT-1080; test: Induction of ferroptosis in human HT-1080 cells assessed as increase in cellular ROS level at 0.1 uM incubated for 3 hrs by DCFH-DA staining based flow cytometry analysis; format: functional, cell-based
[13] = tested on: HT-1080; test: Induction of ferroptosis in human HT-1080 cells assessed as increase in cellular LPO level at 0.1 uM incubated for 3 hrs by BIODPY-C11 probe based flow cytometry analysis; format: functional, cell-based
[14] = tested on: HT-1080; test: Induction of morphological changes in human HT-1080 cells assessed as […] of mitochondria cristas by TEM analysis; format: functional, cell-based
[15] = Acute toxicity in BALB/c mouse implanted with human HT-1080 cells assessed as change in CREA level at 15 to 30 mg/kg, ip administered for 7 days; format: organism-based; details: in vivo, 168 h, dose 15-30 mg/kg, time 7 day
[16] = tested on: HT-1080; test: Induction of morphological changes in human HT-1080 cells assessed as appearance of round shaped mitochondria by TEM analysis; format: functional, cell-based
[17] = Acute toxicity in BALB/c mouse implanted with human HT-1080 cells assessed as heart damage at 15 to 30 mg/kg, ip administered for 7 days by H and E staining based analysis; format: organism-based; details: in vivo, 168 h, dose 15-30 mg/kg, time 7 day
[18] = Acute toxicity in BALB/c mouse implanted with human HT-1080 cells assessed as liver damage at 15 to 30 mg/kg, ip administered for 7 days by H and E staining based analysis; format: organism-based; details: in vivo, 168 h, dose 15-30 mg/kg, time 7 day
[19] = tested on: HT-1080; test: Antitumor activity against human HT-1080 cells xenografted in BALB/c mouse assessed as tumor growth inhibition at 15 mg/kg, ip administered for 6 days and measured after 2 weeks; format: functional; details: HT-1080, 480 h, time 20 day, read-out: TGI
[20] = AUC (0 to t) in male Sprague-Dawley rat at 20 mg/kg, po measured upto 36 hrs by LC-MS/MS analysis; format: ADME, organism-based; details: in vivo
[21] = tested on: HT-1080; test: Cytotoxicity against human HT-1080 cells assessed as cell survival incubated for 24 hrs in presence of DFO by CCK-8 assay; details: HT-1080, 24 h
[22] = Acute toxicity in BALB/c mouse implanted with human HT-1080 cells assessed as change in ALP level at 15 to 30 mg/kg, ip administered for 7 days; format: organism-based; details: in vivo, 168 h, dose 15-30 mg/kg, time 7 day
[23] = Toxicity in BALB/c mouse implanted with human HT-1080 cells assessed as change in body weight at 15 to 30 mg/kg, ip administered for 6 days and measured after 2 weeks; format: organism-based; details: in vivo, 480 h, dose 15-30 mg/kg, time 20 day
[24] = Cmax in male Sprague-Dawley rat at 20 mg/kg, po measured upto 36 hrs by LC-MS/MS analysis; format: ADME, organism-based; details: in vivo
[25] = tested on: HepG2; test: Cytotoxicity against human HepG2 cells
[26] = tested on: HT-1080; test: Induction of ferroptosis in human HT-1080 cells assessed as reduction in cell viability incubated for 24 hrs in presence of Fer-1 by CCK-8 assay; details: HT-1080, 24 h
[27] = tested on: HT-1080; test: Cytotoxicity against human HT-1080 cells assessed as cell survival incubated for 24 hrs by CCK-8 assay; details: HT-1080, 24 h
[28] = Acute toxicity in BALB/c mouse implanted with human HT-1080 cells assessed as spleen damage at 15 to 30 mg/kg, ip administered for 7 days by H and E staining based analysis; format: organism-based; details: in vivo, 168 h, dose 15-30 mg/kg, time 7 day
[29] = Acute toxicity in BALB/c mouse implanted with human HT-1080 cells assessed as change in ALT level at 15 to 30 mg/kg, ip administered for 7 days; format: organism-based; details: in vivo, 168 h, dose 15-30 mg/kg, time 7 day
[30] = tested on: HT-1080; test: Induction of ferroptosis in human HT-1080 cells assessed as increase in cellular MDA level at 0.1 uM incubated for 6 hrs in presence of Fer-1; format: functional, cell-based
[31] = Acute toxicity in BALB/c mouse implanted with human HT-1080 cells assessed as change in UREA level at 15 to 30 mg/kg, ip administered for 7 days; format: organism-based; details: in vivo, 168 h, dose 15-30 mg/kg, time 7 day
[32] = Clearance in male Sprague-Dawley rat at 20 mg/kg, po measured upto 36 hrs by LC-MS/MS analysis; format: ADME, organism-based; details: in vivo
[33] = Oral bioavailability in male Sprague-Dawley rat at 20 mg/kg measured upto 36 hrs by LC-MS/MS analysis; format: ADME, organism-based; details: in vivo
[34] = Half life in male Sprague-Dawley rat at 20 mg/kg, po measured upto 36 hrs by LC-MS/MS analysis; format: ADME, organism-based; details: in vivo
[35] = Cytotoxicity against human LO2 cells; format: toxicity, cell-based, L02
[36] = tested on: HT-1080; test: Cytotoxicity against human HT-1080 cells in presence of Z-VAD-FMK
[37] = tested on: CAL-27; test: Cytotoxicity against human CAL-27 cells
[38] = tested on: HT-1080; test: Antitumor activity against human HT-1080 cells xenografted in BALB/c mouse assessed as reduction in tumor weight at 15 to 30 mg/kg, ip administered for 6 days and measured after 2 weeks; format: functional, organism-based; details: dose 15-30 mg/kg, time 20.0 day
[39] = tested on: 4T1; test: Cytotoxicity against mouse 4T1 cells

For `C#Cc1nc(C(=O)N(c2ccc(-c3cnco3)cc2)[C@@H](C(=O)NC(C)(C)C)c2csc3ccccc23)cs1`, which Activity [1] is on record?
Its Activity is “Non-toxic”.

And the Activity [2]?
Its Activity is “Non-toxic”.

What about the inhibition in vivo at 30 mg/kg [3] of the same compound?
The inhibition in vivo at 30 mg/kg was 49.4%.

And the Activity [4]?
The Activity was “Non-toxic”.

And the Activity [5]?
The Activity was “Active”.

And the clearance [6]?
The clearance was 282 mL/min/kg.

What about the Cmax [7] of the same compound?
The Cmax was 271 ng/mL.

What about the AUC(0-t) at 36 h [8] of the same compound?
The AUC(0-t) at 36 h was 122 ng·h/mL.

And the IC50 [9]?
The IC50 was 451 nM.

And the IC50 [10]?
Its IC50 is 3 nM.

What about the half-life [11] of the same compound?
The half-life was 1.05 h.

And the Activity [12]?
The Activity was “Active”.

And the Activity [13]?
Its Activity is “Active”.

And the Activity [14]?
The Activity was “Active”.

What about the Activity [15] of the same compound?
The Activity was “Non-toxic”.

And the Activity [16]?
The Activity was “Active”.

And the Activity [17]?
The Activity was “Non-toxic”.

What about the Activity [18] of the same compound?
Its Activity is “Non-toxic”.

What about the inhibition in vivo at 15 mg/kg [19] of the same compound?
The inhibition in vivo at 15 mg/kg was 36.5%.

And the AUC(0-t) at 36 h [20]?
Its AUC(0-t) at 36 h is 79.4 ng·h/mL.

And the IC50 [21]?
The IC50 was 3950 nM.

And the Activity [22]?
Its Activity is “Non-toxic”.

And the Activity [23]?
The Activity was “Non-toxic”.

What about the Cmax [24] of the same compound?
The Cmax was 20.8 ng/mL.

And the IC50 [25]?
Its IC50 is 56 nM.

What about the IC50 [26] of the same compound?
Its IC50 is 7480 nM.

And the IC50 [27]?
Its IC50 is 22 nM.

What about the Activity [28] of the same compound?
Its Activity is “Non-toxic”.

What about the Activity [29] of the same compound?
Its Activity is “Non-toxic”.

What about the Activity [30] of the same compound?
The Activity was “Weak_effect”.

And the Activity [31]?
Its Activity is “Non-toxic”.

What about the CL/F [32] of the same compound?
The CL/F was 5670 mL/min/kg.

And the bioavailability [33]?
The bioavailability was 6.67%.

And the half-life [34]?
The half-life was 2.37 h.

And the IC50 [35]?
The IC50 was 5140 nM.

What about the IC50 [36] of the same compound?
The IC50 was 0.2 nM.

What about the IC50 [37] of the same compound?
Its IC50 is 2680 nM.

What about the Activity [38] of the same compound?
Its Activity is “Active”.

What about the IC50 [39] of the same compound?
Its IC50 is 89 nM.
